# Experimental data reported in patent publication US7792576B2, “Method of treatment for central nervous system injury” (Purdue Research Foundation, priority 2002, dated 2010).
# Experiments:
# retinal ganglion cells = conditions: administered in vitro to retinal ganglion cells; U.S. Pat. No. 6,440,455 and Benowitz et al. 1999; cited from earlier work
# [1] = system: CTM reflex after right lateral hemisection of the spinal cord in adult guinea pig; assay: Behavioral recovery of the cutaneous trunci muscle (CTM) reflex after chronic spinal cord injury (Study One); type: in vivo
# From the text: Fully adult (approximately 400 grams (g)) female guinea pigs were used in this study (Hartley Strain). They were anesthetized with ketamine/xylyzine by conventional methods (Borgens et al. (2002) J. Exp. Biol. 205, 1-12) prior to surgery, kept warm with heat lamps after surgery, and maintained individually in pens and fed ad libidum for the duration of the investigation. Animals were euthanized at the end of the study, prior to the harvesting of spinal cords for anatomical study by an overdose of the anesthesia (see Borgens et al. (2002) J. Exp. Biol. 205, 1-12).
# A laminectomy procedure exposing the dorsal aspect of the spinal cord was performed on all animals between T9 and T11. A right lateral hemisection was performed (FIG. 1) using a special cutting device, and further confirmed to be “complete” (that is, leaving no spared parenchyma) by passing a sharpened pin through the cut tissue. This operation severs the entire right side of the cord from the midline to the far right border of the spinal cord forming a rostral and caudal segment. The entire left side of the spinal cord was left intact. Immediately after transection, a marker device made of surgical stainless steel was inserted into the lesion, as previously described in Borgens et al. (1986) J. Comp. Neurol 250, 168-180 and Borgens and Bohnert (1997) Exp. Neurol. 145, 376-389. […]
# [2] = system: ascending and descending axons of transected spinal cord white matter in adult guinea pig; assay: Anterograde intracellular labeling of spinal cord white matter axons: axonal projections relative to the plane of transection (Study One); type: in vivo
# Method: A laminectomy procedure exposing the dorsal aspect of the spinal cord was performed on all animals between T9 and T11. A right lateral hemisection was performed (FIG. 1) using a special cutting device, and further confirmed to be “complete” (that is, leaving no spared parenchyma) by passing a sharpened pin through the cut tissue. This operation severs the entire right side of the cord from the midline to the far right border of the spinal cord forming a rostral and caudal segment. The entire left side of the spinal cord was left intact. Immediately after transection, a marker device made of surgical stainless steel was inserted into the lesion, as previously described in Borgens et al. (1986) J. Comp. Neurol 250, 168-180 and Borgens and Bohnert (1997) Exp. Neurol. 145, 376-389. This device was left in situ for the duration of the study, and removed prior to histological processing. This procedure leaves a hole in the tissue, which accurately marks the exact plane of transaction even in chronic injuries many months old (FIGS. 1 and 2). The injection of various intracellular labels into guinea pig spinal cord white matter has been described in numerous previous publications. See, for example, Borgens et al. (1986) J Comp Neurol 250, 168-180 and Borgens et al. (1999) Journal of Neurotrauma 16, 639-57. Briefly, approximately 18 hours prior to the sacrifice of the animal, the spinal cord was exposed by surgery, and approximately […], of a fluorescently labeled dextran was injected using a Hamiliton syringe. The label (50% in distilled water; 10,000 Daltons) was injected deep into the parenchyma of white matter, approximately two vertebral segments rostral and caudal of the plane of transection (usually still visible, due to the indwelling marker device). A FITC conjugated dextran (“Flouro-emerald”) was injected rostral to the plane of transection, and a rhodamine-conjugated dextran (“Flouro-ruby”) was injected caudal to the plane of transaction. Thus, this anterograde double label technique marked both ascending fibers (mostly sensory afferent fibers) projecting towards the lesion from below it and descending axons (mainly motor fibers) projecting towards the lesion from above it). Longitudinal horizontal sections provided histological samples in which the entire extent of projection of a single axon often can be traced to fall short of, or regenerate to, around, or through the plane of transection. This procedure can sometimes provide dramatic examples of single unit axon degeneration and regeneration. However, it is not productive to attempt to count individual axons in longitudinal horizontal sections. Often axons take tortuous and curving trajectories, and would be counted more than once in individual histological samples. Additionally, sprouting and branching of fibers can lead to false counting relative to the extended growth from the stump of an individual severed fiber. Rather, the proportion of animals in which axons can be traced to terminate more than 250 μms from the plane of transaction (exactly identified by use of the indwelling marker), within 250 μms of the actual plane of transaction, and to cross the exact plane of transection into the adjacent segment of cord is compared. […] Images from an Olympus Van Ox microscope were obtained with an Optronics DEI-750 color video camera and captured to a PC with Adobe Twain 32 software. Table 1, below, provides the numbers of spinal cords that were injected with the intracellular label (N) and those that were lost to histology (LTH) for each of the three groups. The proportions of those cords in which marked fibers were traced to the four zones are given over the number of cords examined. Statistical Comparison between the groups is provided at the bottom of the graph (Fishers' exact two tailed test). […] Table 1 summarizes the results of anterograde filling of both ascending and descending tracts within the spinal cords of all animals in the Study One, of chronically injured animals. […]
SMILES,axonal outgrowth (retinal ganglion cells),"percent recovery of the CTM receptive field (mean) ([1]; at the end of the study, chronic SCI, P=0.5 between groups (Mann Whitney)) [%]","animals that recovered some amount of CTM behavior ([1]; chronic SCI treated about 3 months after hemisection, inosine 10 mM s.c. osmotic pump 14 days, with or without OFS 4 weeks, 15 inosine, 16 inosine+OFS animals, none of 15 controls recovered) [animals]","Descending fibers, Zone 4: proportion of cords ([2]; FITC-labeled descending fibers projecting into the adjacent segment of cord, over number of cords examined)","Descending fibers, Zone 3: proportion of cords ([2]; FITC-labeled descending fibers terminating at the plane of transection, over number of cords examined)","Descending fibers, Zone 1 >250: cords with labeled fibers ([2]; FITC-labeled descending fibers terminating more than 250 μm from the plane of transection, chronic SCI)","Descending fibers, Zone 2 <250: proportion of cords ([2]; FITC-labeled descending fibers within 250 μm of the plane of transection, over number of cords examined)","Ascending fibers, Zone 4: proportion of cords ([2]; rhodamine-labeled ascending fibers projecting into the adjacent segment of cord, over number of cords examined)","Ascending fibers, Zone 3: proportion of cords ([2]; rhodamine-labeled ascending fibers terminating at the plane of transection, over number of cords examined)","Ascending fibers, Zone 1 >250: cords with labeled fibers ([2]; rhodamine-labeled ascending fibers terminating more than 250 μm from the plane of transection, chronic SCI)","Ascending fibers, Zone 2 <250: proportion of cords ([2]; rhodamine-labeled ascending fibers within 250 μm of the plane of transection, over number of cords examined)"
"OC[C@H]1O[C@@H](n2cnc3c(O)ncnc32)[C@H](O)[C@@H]1O [Inosine, inosine]",stimulating axonal outgrowth,23.5±3.6,11,1/8,2/8,8,7/8,2/12,7/12,12,10/12
Nc1nc2c(ncn2[C@@H]2O[C@H](CO)[C@@H](O)[C@H]2O)c(=O)[nH]1 [guanosine],stimulating axonal outgrowth,,,,,,,,,,
